Source: the supplement of paper PMC11208160

Experiment: recombinant UMI read abundance after kanamycin selection (control-corrected) (log10(CPM+1)); higher = more efficient recombination; extreme values may be limits of the assay; sequences stand for … in AGTGCAGAGAAAATCGGCCAGTTTTCTCTGCCTGCAGTCCGCATGCCGTGGGACCCCTTGGGTTCTAACCTGTTGCCTAGATTTATGCAGCGGACTGCCTTTCTCCCAAAGTGATAAACCGG…AGGTTGGTTTCACT; site = the 11-nt donor
In short: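 Under IPTG (0.07 mM) plus kanamycin, or without selection, Escherichia coli carrying a UMI-tagged donor and donor-binding-loop pair library and a target plasmid for the IS621 bridge recombinase were plated in two replicates. Recombinant UMIs were PCR-amplified across the donor–target junction and sequenced. Counts were converted to CPM, averaged over replicates, scaled by control-derived factors and reported as log10(CPM+1).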
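Further: IS621 bridge recombinase in Escherichia coli cells against a fixed T5 target plasmid.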

| Sequence | recombinant UMI read abundance (log10) |
| --- | --- |
| CGGCGGACATGGACCGGTTTTCCCGGTAATCCGTATTTGTG (site CGGCGGACTCA) | 1.64 |
| CGGCGTTCATGGACCGGTTTTCCCGGTAATCCGTATTTGAC (site CGGCGTTCTGT) | 1.69 |
| CGGCTGCCATGGACCGGTTTTCCCGGTAATCCGTATTTGTT (site CGGCTGCCTAA) | 0.0892 |
| CGGCTTACATGGACCGGTTTTCCCGGTAATCCGTATTTGTC (site CGGCTTACTGA) | 1.65 |
| CGGGAACCATGGACCGGTTTTCCCGGTAATCCGTATTTGAC (site CGGGAACCTAT) | 0 |
| CGGGAACCATGGACCGGTTTTCCCGGTAATCCGTATTTGAC (site CGGGAACCTCT) | 0 |
| CGGGAACCATGGACCGGTTTTCCCGGTAATCCGTATTTGAC (site CGGGAACCTGT) | 0 |
| CGGGAACCATGGACCGGTTTTCCCGGTAATCCGTATTTGAC (site CGGGAACCTTT) | 0.0135 |
| CGGGAATCATGGACCGGTTTTCCCGGTAATCCGTATTTGAT (site CGGGAAACTAT) | 1.23 |
| CGGGAATCATGGACCGGTTTTCCCGGTAATCCGTATTTGAT (site CGGGAACCTAT) | 0 |
| CGGGAATCATGGACCGGTTTTCCCGGTAATCCGTATTTGAT (site CGGGAAGCTAT) | 0.284 |
| CGGGAATCATGGACCGGTTTTCCCGGTAATCCGTATTTGAT (site CGGGAATCTAT) | 2.01 |
| CGGGACACATGGACCGGTTTTCCCGGTAATCCGTATTTGTC (site CGGGACACTGA) | 3.03 |
| CGGGAGCCATGGACCGGTTTTCCCGGTAATCCGTATTTGCC (site CGGGAGACTGG) | 0.0249 |
| CGGGAGCCATGGACCGGTTTTCCCGGTAATCCGTATTTGCC (site CGGGAGCCTGG) | 0 |
| CGGGAGCCATGGACCGGTTTTCCCGGTAATCCGTATTTGCC (site CGGGAGGCTGG) | 0.991 |
| CGGGAGCCATGGACCGGTTTTCCCGGTAATCCGTATTTGCC (site CGGGAGTCTGG) | 1 |
| CGGGAGTCATGGACCGGTTTTCCCGGTAATCCGTATTTGCC (site AGGGAGTCTGG) | 0 |
| CGGGAGTCATGGACCGGTTTTCCCGGTAATCCGTATTTGCC (site CAGGAGTCTGG) | 2.51 |
| CGGGAGTCATGGACCGGTTTTCCCGGTAATCCGTATTTGCC (site CCGGAGTCTGG) | 0 |
| CGGGAGTCATGGACCGGTTTTCCCGGTAATCCGTATTTGCC (site CGAGAGTCTGG) | 2.48 |
| CGGGAGTCATGGACCGGTTTTCCCGGTAATCCGTATTTGCC (site CGCGAGTCTGG) | 1.69 |
| CGGGAGTCATGGACCGGTTTTCCCGGTAATCCGTATTTGCC (site CGGAAGTCTGG) | 2.67 |

| Sequence | recombinant UMI read abundance (log10) |
| --- | --- |
| CGGGAGTCATGGACCGGTTTTCCCGGTAATCCGTATTTGCC (site CGGCAGTCTGG) | 0 |
| CGGGAGTCATGGACCGGTTTTCCCGGTAATCCGTATTTGCC (site CGGGAATCTGG) | 2.83 |
| CGGGAGTCATGGACCGGTTTTCCCGGTAATCCGTATTTGCC (site CGGGACTCTGG) | 0 |
| CGGGAGTCATGGACCGGTTTTCCCGGTAATCCGTATTTGCC (site CGGGAGACTGG) | 1.54 |
| CGGGAGTCATGGACCGGTTTTCCCGGTAATCCGTATTTGCC (site CGGGAGCCTGG) | 0 |
| CGGGAGTCATGGACCGGTTTTCCCGGTAATCCGTATTTGCC (site CGGGAGGCTGG) | 0.103 |
| CGGGAGTCATGGACCGGTTTTCCCGGTAATCCGTATTTGCC (site CGGGAGTCTAG) | 2.02 |
| CGGGAGTCATGGACCGGTTTTCCCGGTAATCCGTATTTGCC (site CGGGAGTCTCG) | 1.51 |
| CGGGAGTCATGGACCGGTTTTCCCGGTAATCCGTATTTGCC (site CGGGAGTCTGA) | 2.66 |
| CGGGAGTCATGGACCGGTTTTCCCGGTAATCCGTATTTGCC (site CGGGAGTCTGC) | 2.08 |
| CGGGAGTCATGGACCGGTTTTCCCGGTAATCCGTATTTGCC (site CGGGAGTCTGG) | 1.67 |
| CGGGAGTCATGGACCGGTTTTCCCGGTAATCCGTATTTGCC (site CGGGAGTCTGT) | 1.75 |
| CGGGAGTCATGGACCGGTTTTCCCGGTAATCCGTATTTGCC (site CGGGAGTCTTG) | 2.01 |
| CGGGAGTCATGGACCGGTTTTCCCGGTAATCCGTATTTGCC (site CGGGATTCTGG) | 0 |
| CGGGAGTCATGGACCGGTTTTCCCGGTAATCCGTATTTGCC (site CGGGCGTCTGG) | 0 |
| CGGGAGTCATGGACCGGTTTTCCCGGTAATCCGTATTTGCC (site CGGGGGTCTGG) | 1.3 |
| CGGGAGTCATGGACCGGTTTTCCCGGTAATCCGTATTTGCC (site CGGGTGTCTGG) | 0 |
| CGGGAGTCATGGACCGGTTTTCCCGGTAATCCGTATTTGCC (site CGGTAGTCTGG) | 0.878 |
| CGGGAGTCATGGACCGGTTTTCCCGGTAATCCGTATTTGCC (site CGTGAGTCTGG) | 0.895 |
| CGGGAGTCATGGACCGGTTTTCCCGGTAATCCGTATTTGCC (site CTGGAGTCTGG) | 2.06 |
| CGGGAGTCATGGACCGGTTTTCCCGGTAATCCGTATTTGCC (site GGGGAGTCTGG) | 0 |
| CGGGAGTCATGGACCGGTTTTCCCGGTAATCCGTATTTGCC (site TGGGAGTCTGG) | 0 |
| CGGGATCCATGGACCGGTTTTCCCGGTAATCCGTATTTGAT (site CGGGAACCTAT) | 0.0108 |

| Sequence | recombinant UMI read abundance (log10) |
| --- | --- |
| CGGGATCCATGGACCGGTTTTCCCGGTAATCCGTATTTGAT (site CGGGACCCTAT) | 0.492 |
| CGGGATCCATGGACCGGTTTTCCCGGTAATCCGTATTTGAT (site CGGGAGCCTAT) | 0.0289 |
| CGGGATCCATGGACCGGTTTTCCCGGTAATCCGTATTTGAT (site CGGGATCCTAT) | 0.898 |
| CGGGATCCATGGACCGGTTTTCCCGGTAATCCGTATTTGTT (site CGGAATCCTAA) | 0.736 |
| CGGGATCCATGGACCGGTTTTCCCGGTAATCCGTATTTGTT (site CGGCATCCTAA) | 0.02 |
| CGGGATCCATGGACCGGTTTTCCCGGTAATCCGTATTTGTT (site CGGGATCCTAA) | 0.85 |
| CGGGATCCATGGACCGGTTTTCCCGGTAATCCGTATTTGTT (site CGGTATCCTAA) | 0.243 |
| CGGGCACCATGGACCGGTTTTCCCGGTAATCCGTATTTGAT (site CGGGAACCTAT) | 0 |
| CGGGCACCATGGACCGGTTTTCCCGGTAATCCGTATTTGAT (site CGGGCACCTAT) | 0 |
| CGGGCACCATGGACCGGTTTTCCCGGTAATCCGTATTTGAT (site CGGGGACCTAT) | 0.0117 |
| CGGGCACCATGGACCGGTTTTCCCGGTAATCCGTATTTGAT (site CGGGTACCTAT) | 0 |
| CGGGCATCATGGACCGGTTTTCCCGGTAATCCGTATTTGCT (site CGATCATCTAG) | 0 |
| CGGGCATCATGGACCGGTTTTCCCGGTAATCCGTATTTGCT (site CGGACATCTAG) | 0.763 |
| CGGGCATCATGGACCGGTTTTCCCGGTAATCCGTATTTGCT (site CGGCCATCTAG) | 0 |
| CGGGCATCATGGACCGGTTTTCCCGGTAATCCGTATTTGCT (site CGGGCATCTAG) | 1.86 |
| CGGGCATCATGGACCGGTTTTCCCGGTAATCCGTATTTGCT (site CGGTCATCTAG) | 0 |
| CGGGCATCATGGACCGGTTTTCCCGGTAATCCGTATTTGTA (site CGGGCATCTTA) | 2.38 |
| CGGGCTGCATGGACCGGTTTTCCCGGTAATCCGTATTTGAG (site CGGGCTGCTCT) | 1.37 |
| CGGGGATCATGGACCGGTTTTCCCGGTAATCCGTATTTGTT (site CGGGGATCTAA) | 2.63 |
| CGGGTCCCATGGACCGGTTTTCCCGGTAATCCGTATTTGCC (site CGGGTCCCTGG) | 1.39 |
| CGGTACCCATGGACCGGTTTTCCCGGTAATCCGTATTTGGT (site CGGTACCCTAC) | 0.0101 |
| CGGTAGACATGGACCGGTTTTCCCGGTAATCCGTATTTGAG (site CGATAGACTCT) | 2.01 |
